Experimental data published in the SangsterLogP compilation.

Legend:
[1] = method code SF-AS, from DOI: 10.1002/(sici)1521-3838(199801)17:01<01::aid-qsar1>3.0.co;2-a

Structure (SMILES)	logP [1]	logP
O=C(Nc1ncc([N+](=O)[O-])s1)c1ccccc1Br	3.09	
O=C(Nc1ncc([N+](=O)[O-])s1)c1c(F)cccc1F		2.44
O=C(Nc1ncc([N+](=O)[O-])s1)c1c(F)cccc1Cl		3
O=C(Nc1ncc([N+](=O)[O-])s1)c1ccc(Br)cc1	3.58	
O=C(Nc1ncc([N+](=O)[O-])s1)c1cc(Br)ccc1Br	3.75	
O=C(Nc1ncc([N+](=O)[O-])s1)c1ccccc1F		2.71
O=C(Nc1ncc([N+](=O)[O-])s1)c1cc(Cl)ccc1Cl		3.57
O=C(Nc1ncc([N+](=O)[O-])s1)c1cccc(Cl)c1	3.61	
O=C(Nc1ncc([N+](=O)[O-])s1)c1cccc(Br)c1	3.8	
O=C(Nc1ncc([N+](=O)[O-])s1)c1ccccc1	2.97	
CC(=O)Oc1ccccc1C(=O)Nc1ncc([N+](=O)[O-])s1		2.41
O=C(Nc1ncc([N+](=O)[O-])s1)c1ccc(Cl)cc1Cl	3.62	
O=C(Nc1ncc([N+](=O)[O-])s1)c1ccc(F)cc1		3.12
O=C(Nc1ncc([N+](=O)[O-])s1)c1ccc(Cl)c(Cl)c1	4.14	
O=C(Nc1ncc([N+](=O)[O-])s1)c1cc(Cl)cc(Cl)c1	4.14	
